One block for each molecule: values may come before it. Calls of active or inactive are those of the source. The calls are words filed in the database; no cut-off is given here. Residues, ends and D or L forms follow the SMILES beside them. *: point of attachment. Boc = CC(C)(C)OC(=O)*
Experiments:
[1] = molecular target: T1, Cholecystokinin receptor type A (Cavia porcellus) (UniProt Q63931); assay: Affinity at Cholecystokinin type A receptor in guinea pig gall bladder; inactive at the limits of solubility, usually 10e-4 M.; type: tissue-based
T1 sequence (whole entry): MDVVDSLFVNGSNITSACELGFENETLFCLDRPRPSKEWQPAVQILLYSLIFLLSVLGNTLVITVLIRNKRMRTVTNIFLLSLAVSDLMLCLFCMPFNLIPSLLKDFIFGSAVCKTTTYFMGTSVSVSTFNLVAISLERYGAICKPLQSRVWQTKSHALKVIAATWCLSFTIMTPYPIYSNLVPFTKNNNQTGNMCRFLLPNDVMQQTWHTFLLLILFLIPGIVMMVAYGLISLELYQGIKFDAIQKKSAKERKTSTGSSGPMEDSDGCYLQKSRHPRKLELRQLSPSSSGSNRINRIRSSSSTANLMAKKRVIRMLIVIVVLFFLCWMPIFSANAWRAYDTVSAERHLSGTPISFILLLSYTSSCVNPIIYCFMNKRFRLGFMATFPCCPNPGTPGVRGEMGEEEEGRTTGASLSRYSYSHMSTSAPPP

[2] = molecular target: T1, Cholecystokinin receptor type A (Cavia porcellus); assay: Compound was evaluated for its affinity at Cholecystokinin type A receptor in Guinea-Pig gallbladder; inactive at the limits of solubility, usually 10e-4 M.
[3] = molecular target: T2, Gastrin/cholecystokinin type B receptor (Mus musculus) (UniProt P56481); assay: Maximum acid secretion obtained at 10e -5 M: values expressed as percentage of the maximum response to pentagastrin (n=4/6) in mouse stomach at CCKB/Gastrin receptor; inactive at the limits of solubility, usually 10e-4 M.; type: functional, tissue-based
T2 sequence (whole entry): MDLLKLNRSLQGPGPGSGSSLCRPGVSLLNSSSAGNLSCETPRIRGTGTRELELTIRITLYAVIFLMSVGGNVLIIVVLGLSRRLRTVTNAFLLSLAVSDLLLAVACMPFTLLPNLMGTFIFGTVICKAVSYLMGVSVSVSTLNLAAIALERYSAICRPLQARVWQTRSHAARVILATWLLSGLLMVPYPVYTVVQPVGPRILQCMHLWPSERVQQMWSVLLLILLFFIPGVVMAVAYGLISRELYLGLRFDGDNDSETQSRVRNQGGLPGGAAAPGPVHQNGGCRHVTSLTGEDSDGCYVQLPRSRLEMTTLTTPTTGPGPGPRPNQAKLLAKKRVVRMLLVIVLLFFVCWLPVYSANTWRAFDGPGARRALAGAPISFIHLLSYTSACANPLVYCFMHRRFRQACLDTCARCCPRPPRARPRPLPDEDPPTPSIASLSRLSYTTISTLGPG

[4] = molecular target: T2, Gastrin/cholecystokinin type B receptor (Mus musculus); assay: Efficiency against CCKB/Gastrin receptor for stimulation of gastric acid secretion in lumen-perfused mouse stomach: activity measured as midpoint agonist concentration-effect curve parameter; inactive at the limits of solubility, u sually 10e-4M.; type: functional, tissue-based
[5] = molecular target: T1, Cholecystokinin receptor type A (Cavia porcellus); assay: Compound was evaluated for its affinity at Cholecystokinin type A receptor in Guinea-Pig gallbladder
[6] = molecular target: T2, Gastrin/cholecystokinin type B receptor (Mus musculus); assay: Maximum acid secretion obtained at 10e -5 M: values expressed as percentage of the maximum response to pentagastrin (n=4/6) in mouse stomach at CCKB/Gastrin receptor; type: functional, tissue-based
[7] = molecular target: T2, Gastrin/cholecystokinin type B receptor (Mus musculus); assay: Efficiency against CCKB/Gastrin receptor for stimulation of gastric acid secretion in lumen-perfused mouse stomach: activity measured as midpoint agonist concentration-effect curve parameter; type: functional, tissue-based
[8] = molecular target: T1, Cholecystokinin receptor type A (Cavia porcellus); assay: Compound was evaluated for its affinity at Cholecystokinin type A receptor in Guinea-Pig gall bladder; inactive at 10e-4 M; type: tissue-based
[9] = molecular target: T1, Cholecystokinin receptor type A (Cavia porcellus); assay: Binding affinity for Cholecystokinin type A receptor in Guinea-Pig gall bladder; type: tissue-based
[10] = Compound was evaluated for partition coefficient using chloroform/buffer at pH 7.4 and 254 nm; type: physicochemical; settings: octanol/water
[11] = Compound was evaluated for partition coefficient using chloroform/buffer at pH 7.4 and 280 nm; type: physicochemical; settings: octanol/water
[12] = molecular target: T3, Gastrin/cholecystokinin type B receptor (Mus musculus, UniProt P56481); assay: Compound was evaluated for its affinity against Cholecystokinin type B receptor in mouse cerebral cortex; type: tissue-based
T3 sequence (P56481 whole entry): T2 sequence (whole entry)

[13] = molecular target: T4, Cholecystokinin receptor type A (Cavia porcellus, UniProt Q63931); assay: In vitro affinity against Cholecystokinin type A receptor in guinea pig pancreatic cell
T4 sequence (Q63931 whole entry): T1 sequence (whole entry)

[14] = molecular target: T1, Cholecystokinin receptor type A (Cavia porcellus); assay: Compound was evaluated for its affinity at Cholecystokinin type A receptor in Guinea-Pig gall bladder; type: tissue-based

Structure (SMILES): CC(C)(C)OC(=O)N[C@@H](CC(=O)O)C(=O)NCCc1ccccc1
- pKB [2]: inactive
- Max response [3]: inactive
- p[A50] [4]: inactive

Structure (SMILES): O=C(O)C[C@H](NC(=O)c1ccc2ccccc2c1)C(=O)NCCc1ccccc1
- pKB [5]: 5.6
- Max response [3]: inactive
- p[A50] [4]: inactive

Structure (SMILES): NC(=O)[C@H](Cc1ccccc1)NC(=O)[C@H](CC(=O)O)NS(=O)(=O)c1cccc2ccccc12
- pKB [1]: inactive
- Max response [6]: 30%
- p[A50] [7]: 4.6

Structure (SMILES): CC(C)(C)OC(=O)N[C@@H](CC(=O)O)C(=O)N[C@@H](Cc1ccccc1)C(N)=O (Boc-Asp-Phe-NH2)
- pKB [8]: inactive
- Max response [6]: 100%
- p[A50] [7]: 5.7

Structure (SMILES): O=C(O)C[C@H](NS(=O)(=O)Cc1ccccc1)C(=O)NCCc1ccccc1
- pKB [1]: inactive

Structure (SMILES): NC(=O)[C@H](Cc1ccccc1)NC(=O)[C@H](CC(=O)O)NS(=O)(=O)c1ccc2ccccc2c1
- pKB [1]: inactive
- Max response [6]: 96%
- p[A50] [7]: 5.6

Structure (SMILES): COc1cc2cc(S(=O)(=O)N[C@@H](CC(=O)O)C(=O)NCCc3ccccc3)ccc2c(Cl)c1OC
- pKB [9]: 6.2

Structure (SMILES): O=C(O)C[C@H](NS(=O)(=O)c1ccc2ccccc2c1)C(=O)NCCCc1ccccc1
- pKB [9]: 7

Structure (SMILES): CN1C(=O)[C@@H](NC(=O)c2cc3ccccc3[nH]2)N=C(c2ccccc2)c2ccccc21 [DEVAZEPIDE]
- logD [10]: 4.16
- logD [11]: 4.1

Structure (SMILES): COc1ccc2cc(S(=O)(=O)N[C@@H](CC(=O)O)C(=O)NCCc3ccccc3)ccc2c1Cl
- pKB [9]: 6.5

Structure (SMILES): O=C(O)C[C@@H](NS(=O)(=O)c1ccc2ccccc2c1)C(=O)NCCc1ccccc1
- pKB [9]: 5.9

Structure (SMILES): Cc1ccc(S(=O)(=O)N[C@@H](CC(=O)O)C(=O)NCCc2ccccc2)cc1
- pKB [1]: inactive

Structure (SMILES): O=C(O)C[C@H](NS(=O)(=O)CCc1ccccc1)C(=O)NCCc1ccccc1
- pKB [9]: 5.5

Structure (SMILES): O=C(O)C[C@H](NS(=O)(=O)Cc1ccc2ccccc2c1)C(=O)NCCc1ccccc1
- pKB [9]: 5.4

Structure (SMILES): COc1ccc(S(=O)(=O)N[C@@H](CC(=O)O)C(=O)NCCc2ccccc2)cc1
- pKB [1]: inactive

Structure (SMILES): CC(C)C[C@H](NC(=O)[C@H](Cc1c[nH]c2ccccc12)NC(=O)OC(C)(C)C)C(=O)N[C@@H](CC(=O)O)C(=O)N[C@@H](Cc1ccccc1)C(N)=O (Boc-WLDF-NH2)
- pKB [14]: 5.1
- Max response [6]: 100%
- p[A50] [7]: 8.6

Structure (SMILES): NS(=O)(=O)c1ccc(CCNC(=O)[C@H](CC(=O)O)NS(=O)(=O)c2ccc3ccccc3c2)cc1
- pKB [9]: 5

Structure (SMILES): O=C(O)C[C@H](NS(=O)(=O)CCCc1ccccc1)C(=O)NCCc1ccccc1
- pKB [1]: inactive

Results, then the molecule that gave them:

- pKB [1]: inactive
Structure (SMILES): O=C(O)C[C@H](NS(=O)(=O)c1ccccc1)C(=O)NCCc1ccccc1

- pKB [1]: inactive
Structure (SMILES): O=C(O)CC[C@@H](NS(=O)(=O)c1ccc2ccccc2c1)C(=O)NCCc1ccccc1

- pKB [9]: 6.1
Structure (SMILES): O=C(O)CC[C@H](NS(=O)(=O)c1ccc2ccccc2c1)C(=O)NCCc1ccccc1

- pKB [9]: 6.6
Structure (SMILES): COc1ccc2cc(S(=O)(=O)N[C@@H](CC(=O)O)C(=O)NCCc3ccccc3)ccc2c1

- pKB [1]: inactive
- Max response [3]: inactive
- p[A50] [4]: inactive
Structure (SMILES): O=C(O)C[C@H](NS(=O)(=O)c1cccc2ccccc12)C(=O)NCCc1ccccc1

- pKB [1]: inactive
- Max response [6]: 100%
- p[A50] [7]: 5
Structure (SMILES): NC(=O)[C@H](Cc1ccccc1)NC(=O)[C@H](CC(=O)O)NC(=O)c1ccc2ccccc2c1

- pKB [9]: 6.6
Structure (SMILES): O=C(O)C[C@H](NS(=O)(=O)c1ccc2ccccc2c1)C(=O)NCCc1ccc(F)cc1

- pKB [9]: 5.8
Structure (SMILES): O=C(O)C[C@H](NS(=O)(=O)c1ccc(Cl)c(Cl)c1)C(=O)NCCc1ccccc1

- logD [10]: -0.91
- logD [11]: -0.91
- Ki [12]: 69.2 µM
- Ki [13]: 0.355 µM
- pKB [1]: 6.5
- Max response [3]: inactive
- p[A50] [4]: inactive
Structure (SMILES): O=C(O)C[C@H](NS(=O)(=O)c1ccc2ccccc2c1)C(=O)NCCc1ccccc1

- pKB [9]: 6
Structure (SMILES): COc1ccc(CCNC(=O)[C@H](CC(=O)O)NS(=O)(=O)c2ccc3ccccc3c2)cc1

- pKB [9]: 6.3
Structure (SMILES): O=C(O)C[C@H](NS(=O)(=O)/C=C/c1ccccc1)C(=O)NCCc1ccccc1

Reference: ChEMBL document CHEMBL1150521, “2-NAP: a selective, hydrophilic, non-peptide CCKA - receptor antagonist derived from the cholecystokinin C-terminal dipeptide” (Bioorg Med Chem Lett, 1993)
